Each structure is given as a SMILES string. Structures can show the parent of a compound that is named as a salt. Where two headings read alike, the source gives them in different places.

For data set [1], the system named is reserpine induced hypothermia. As to the kind of experiment: Antagonism of reserpine induced hypothermia in mice (antireserpine / antidepressant activity). The class given is in vivo. The following applies: for Antidepressant activity (in words): according to pharmacological testing, reversal of reserpine hypothermia in mice.
Procedure: (§1) The compounds were administered intraperitoneally and the activities of the compounds were compared with those of Amitriptyline.
Data set [2] relates to spontaneous motor activity. As to the kind of experiment: Spontaneous motor activity measured by ANIMEX apparatus (CNS depressant activity). The class given is in vivo. The note with it: Mus musculus, ip, mice, i.p., dose preventing 50% of response, read-out: Spontaneous motor activity depression ED50.
Procedure: as §1
The test system of data set [3] is neurological deficit as measured by traction tests. As to the kind of experiment: Traction test (CNS depressant activity, muscle relaxant action). Type of data set: in vivo. The note with it: mice; for ED50: Mus musculus, ip, traction test, dose preventing 50% of response.
Procedure: as §1
The test system of a further data set is tremorine induced tremor. As to the kind of experiment: Tremorine induced tremor (central anticholinergic effect). The note with it: mice; for ED50: Mus musculus, ip, i.p., dose preventing 50% of response, read-out: Antitremorine effect ED50. The class given is in vivo.
Data set [4] deals with electroshock induced tonic extensor. As to the kind of experiment: Antagonism of electroshock induced tonic extensor (anticonvulsant activity). The note with it: Mus musculus, ip; mice; dose preventing 50% of response. The class given is in vivo.
Procedure: as §1
A further data set in a line: in vivo. The note with it: mouse, ip.
For data set [5] the following is noted: mice, in b83 as compared with Amitriptyline at the same relative potency.

Procedure for tremorine induced tremor: as §1

For orientation: ED50 means the dose at which the effect has come halfway, by size or by number of responders. A word on the LD50: it is the dose expected to kill half of the subjects tested. A lower LD50 goes with greater toxicity. `CNCCCOc1ccccc1Cc1ccccc1` [2-(3-methylaminopropoxy) diphenylmethane hydrochloride]: in data set [1] (mice, i.p., reserpine 5 mg/kg i.p., Amitriptyline = 1), the “Antireserpine activity, Relative Potency” value was determined as 0.56. Moreover, the ED50 was found to be 90 mg/kg in data set [2], 65 mg/kg in data set [3], 42 mg/kg in the data set with tremorine induced tremor and 40 mg/kg in data set [4]. This compound also yielded an LD50 in “in vivo” of 160 mg/kg.

As to `CNCCCOc1ccccc1Cc1ccccc1` [2-(3-methylaminopropoxy) diphenylmethane], the “Antidepressant activity (in words)” value in data set [1] is on record as “high level of antidepressant activity”. The results for the “Toxicity (in words)” value in data set [5] and in data set [5] (listed as 2-(3-methylaminopropoxy)diphenylmethane) were “low level of toxicity” and “lower toxicity”, respectively. Moreover, the “CNS depressant action (in words)” value in data set [3] (as compared with Amitriptyline at the same relative potency, traction test and spontaneous motor activity) is “weaker CNS depressant”. The “Anticholinergic action (in words)” value in the data set with tremorine induced tremor (as compared with Amitriptyline at the same relative potency) is “weaker CNS depressant and anticholinergic action”.

`CN(C)CCCOc1ccccc1Cc1ccccc1` [2-(3-dimethylaminopropoxy)-diphenylmethane]: in data set [1], the “Antidepressant activity (in words)” value was “do not possess antidepressant activity”.

Consider `CN(C)CCC=C1c2ccccc2CCc2ccccc21` [Amitriptyline, reference compound], for which the ED50 in data set [2] came out at 18 mg/kg; in data set [3] it was 15 mg/kg; in the data set with tremorine induced tremor, 4 mg/kg; in data set [4] it was 16 mg/kg. This compound also showed an LD50 in “in vivo” of 65 mg/kg.

Take `CN(C)CCOc1ccccc1Cc1ccccc1` [2-(2-dimethylaminoethoxy) diphenylmethane]: the “Antidepressant activity (in words)” value in data set [1] was “do not possess antidepressant activity”.

On to `CNCCOc1ccccc1Cc1ccccc1` [2-(2-methylaminoethoxy) diphenylmethane], for which the “Antidepressant activity (in words)” value in data set [1] is “do not possess antidepressant activity”.

Values taken from US4024282A, “Pharmaceutically active 2-(3-alkylaminopropoxy)diphenylmethanes” (Mitsubishi Chemical Industries Ltd., priority 1975, dated 1977).
